Experimental data published in patent publication US20160318987A1 (MEDIMMUNE LIMITED, priority 2013, published 2016).
Where a SMILES comes first, the peptide text is derived from it. [ ]: non-standard residue; d: D form. The star is where a group is joined. Palmitoyl = CCCCCCCCCCCCCCCC(=O)*; αMeF = C[C@](N)(Cc1ccccc1)C(=O)O; αMeK = C[C@](N)(CCCCN)C(=O)O; Aib = CC(C)(N)C(=O)O

Key:
Type in all cases: cell-based
Conditions in all cases: n = 2
hGluc-R = molecular target: T1, hGluc-R (Homo sapiens, UniProt P47871); experiment: cAMP functional assay, cells expressing human glucagon receptor (primary assay)
T1 construct: expressed in transfected cells
Description: The biological activities/receptor potencies of the synthetic GLP-1 peptides described herein are suitably tested for biological activity, e.g., stimulation of one or more cellular receptor responses. Stable cell lines expressing human, mouse, rat, or dog GLP-1 receptor (GLP-1R), glucagon receptor (GCGR) or glucose-dependent insulinotropic peptide (gastric inhibitory polypeptide) receptor (GIPR) are generated in HEK293 cells or CHO cells by standard methods.
cAMP assays were performed using “assay buffer”: Assay Buffer: 0.1% BSA (Sigma #A3059) in HBSS (Sigma #H8264) with 25 mM HEPES, pH 7.4 and containing 0.5 mM IBMX (Sigma #17018).
Low protein binding 384-well plates (Greiner #781280) are used to perform eleven 1 in 5 serial dilutions of test samples which are made in assay buffer. All sample dilutions are made in duplicate.
A frozen cryo-vial of cells expressing the receptor of interest is thawed rapidly in a water-bath, transferred to pre-warmed assay buffer and spun at 240× g for 5 minutes. Cells are re-suspended in assay buffer at a batch-dependent optimized concentration (e.g. hGCGR cells at 2×10^5 cells/ml, hGLP-1R and hGIPR cells at 1×10^5 cells /ml).
From the dilution plate, a 5 μL replica is stamped onto a black shallow-well u-bottom 384-well plate (Corning #3676). To this, 5 μL cell suspension is added and the plates incubated at room temperature for 30 minutes.
cAMP levels are measured using a commercially available cAMP dynamic 2 HTRF kit (Cisbio, Cat #62AM4PEJ), following the two step protocol as per manufacturer's recommendations. In brief; anti-cAMP cryptate (donor fluorophore) and cAMP-d2 (acceptor fluorophore) are made up separately by diluting each 1/20 in conjugate & lysis buffer provided in the kit. 5 μL anti-cAMP cryptate is added to all wells of the assay plate, and 5 μL cAMP-d2 is added to all wells except non-specific binding (NSB) wells, to which conjugate and lysis buffer are added. Plates are incubated at room temperature for one hour and then read on an Envision (Perkin Elmer) using excitation wavelength of 320 nm and emission wavelengths of 620 nm & 665 nm. EC50 values of the synthetic peptides determined in cAMP assays are then determined.

hGIP-R = molecular target: T2, hGIP-R (Homo sapiens, UniProt P48546); experiment: cAMP functional assay, cells expressing human GIP receptor (primary assay)
T2 construct: expressed in transfected cells
T2 sequence (P48546 22-466): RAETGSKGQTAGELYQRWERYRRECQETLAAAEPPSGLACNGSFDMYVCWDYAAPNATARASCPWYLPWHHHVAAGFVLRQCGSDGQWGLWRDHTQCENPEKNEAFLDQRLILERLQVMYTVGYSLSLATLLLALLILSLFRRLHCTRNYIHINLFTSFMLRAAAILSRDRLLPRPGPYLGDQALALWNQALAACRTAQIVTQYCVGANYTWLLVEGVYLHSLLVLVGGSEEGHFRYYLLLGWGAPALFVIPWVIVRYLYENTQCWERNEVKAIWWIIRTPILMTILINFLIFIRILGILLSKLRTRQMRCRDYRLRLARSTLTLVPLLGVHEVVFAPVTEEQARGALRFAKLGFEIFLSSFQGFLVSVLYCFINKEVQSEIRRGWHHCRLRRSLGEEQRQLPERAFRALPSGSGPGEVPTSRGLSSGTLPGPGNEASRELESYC

hGLP-1R = molecular target: T3, hGLP-1R (Homo sapiens, UniProt P43220); experiment: cAMP functional assay, cells expressing human GLP-1 receptor (primary assay)
T3 construct: expressed in transfected cells
T3 sequence (P43220 24-463): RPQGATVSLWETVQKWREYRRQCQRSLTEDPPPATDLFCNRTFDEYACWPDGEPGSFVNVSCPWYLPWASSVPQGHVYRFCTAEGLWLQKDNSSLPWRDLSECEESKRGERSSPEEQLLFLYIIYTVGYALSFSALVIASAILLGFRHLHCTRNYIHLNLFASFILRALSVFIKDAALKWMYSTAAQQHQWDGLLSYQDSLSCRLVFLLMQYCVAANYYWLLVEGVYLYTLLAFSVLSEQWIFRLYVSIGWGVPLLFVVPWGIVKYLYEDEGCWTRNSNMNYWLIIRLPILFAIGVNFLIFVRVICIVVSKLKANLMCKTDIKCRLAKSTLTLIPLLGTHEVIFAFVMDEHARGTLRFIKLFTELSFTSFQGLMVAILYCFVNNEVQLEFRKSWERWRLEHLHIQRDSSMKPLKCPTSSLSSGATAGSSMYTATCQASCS

T1 sequence (P47871 26-477): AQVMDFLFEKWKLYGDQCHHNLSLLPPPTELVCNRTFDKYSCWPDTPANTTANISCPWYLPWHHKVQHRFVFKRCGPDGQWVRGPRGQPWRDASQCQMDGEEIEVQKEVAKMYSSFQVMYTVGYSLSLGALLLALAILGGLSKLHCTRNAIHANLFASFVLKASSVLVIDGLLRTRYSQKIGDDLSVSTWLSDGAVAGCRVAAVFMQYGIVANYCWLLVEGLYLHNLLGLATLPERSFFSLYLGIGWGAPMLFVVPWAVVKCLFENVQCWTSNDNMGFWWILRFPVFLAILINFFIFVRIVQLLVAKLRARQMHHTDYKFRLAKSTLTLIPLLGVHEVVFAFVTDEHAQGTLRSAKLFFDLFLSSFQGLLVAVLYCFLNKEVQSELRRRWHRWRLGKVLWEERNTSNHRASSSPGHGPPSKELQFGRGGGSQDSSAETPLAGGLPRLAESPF

EC50 (hGluc-R) | EC50 (hGIP-R) | EC50 (hGLP-1R) | Structure (SMILES)
104 nM | 104 nM | 0.0223 nM | CC[C@H](C)[C@H](NC(=O)[C@](C)(Cc1ccccc1)NC(=O)[C@H](CCC(=O)O)NC(=O)[C@H](CCCCN)NC(=O)[C@H](C)NC(=O)[C@H](C)NC(=O)[C@H](CCC(N)=O)NC(=O)CNC(=O)[C@H](CCC(=O)O)NC(=O)[C@H](CC(C)C)NC(=O)[C@](C)(Cc1ccccc1)NC(=O)[C@H](CO)NC(=O)[C@H](CO)NC(=O)[C@@H](NC(=O)[C@H](CC(=O)O)NC(=O)[C@H](CO)NC(=O)[C@@H](NC(=O)[C@](C)(Cc1ccccc1)NC(=O)[C@H](CO)NC(=O)CNC(=O)[C@H](CCC(=O)O)NC(=O)C(C)(C)NC(=O)[C@@H](N)Cc1c[nH]cn1)[C@@H](C)O)C(C)C)C(=O)N[C@@H](C)C(=O)N[C@@](C)(Cc1ccccc1)C(=O)N[C@@H](CC(C)C)C(=O)N[C@H](C(=O)N[C@@](C)(CCCCN)C(=O)NCC(=O)NCC(N)=O)C(C)C [SEQ ID NO: 45, H-(Aib)^2-EG-(S)^5-(α-MeF)^6-TSDV^10 SS-(α-MeF)^13-LE^15 GQAAK^20 E-(α-MeF)^22-IA-(α-MeF)^25 LV-(α-MeK)^28-G-(G)^30] (H-H[Aib]EGS[αMeF]TSDVSS[αMeF]LEGQAAKE[αMeF]IA[αMeF]LV[αMeK]GG-NH2)
92.7 nM | 92.7 nM | 0.105 nM | CCCCCCCCCCCCCCCC(=O)NCCCC[C@H](NC(=O)CNC(=O)CNC(=O)[C@](C)(CCCCN)NC(=O)[C@@H](NC(=O)[C@H](CC(C)C)NC(=O)[C@](C)(Cc1ccccc1)NC(=O)[C@H](C)NC(=O)[C@@H](NC(=O)[C@](C)(Cc1ccccc1)NC(=O)[C@H](CCC(=O)O)NC(=O)[C@](C)(CCCCN)NC(=O)[C@H](C)NC(=O)[C@H](C)NC(=O)[C@H](CCC(N)=O)NC(=O)CNC(=O)[C@H](CCC(=O)O)NC(=O)[C@H](CC(C)C)NC(=O)[C@](C)(Cc1ccccc1)NC(=O)[C@H](CO)NC(=O)[C@H](CO)NC(=O)[C@@H](NC(=O)[C@H](CC(=O)O)NC(=O)[C@H](CO)NC(=O)[C@@H](NC(=O)[C@](C)(Cc1ccccc1)NC(=O)[C@H](CO)NC(=O)CNC(=O)[C@H](CCC(=O)O)NC(=O)C(C)(C)NC(=O)[C@@H](N)Cc1c[nH]cn1)[C@@H](C)O)C(C)C)[C@@H](C)CC)C(C)C)C(N)=O [SEQ ID NO: 47, H-(Aib)^2-EG-(S)^5-(α-MeF)^6-TSDV^10 SS-(α-MeF)^13-LE^15 GQAA-(α-MeK)^20 E-(α-MeF)^22-IA-(α-MeF)^25 LV-(α-MeK)^28-G-(G)^30-K(Ε-Palm)] (H-H[Aib]EGS[αMeF]TSDVSS[αMeF]LEGQAA[αMeK]E[αMeF]IA[αMeF]LV[αMeK]GGK(Palmitoyl)-NH2)

Further lines, the compound ahead of its results:

Structure (SMILES) | EC50 (hGluc-R) | EC50 (hGIP-R) | EC50 (hGLP-1R)
CC[C@H](C)[C@H](NC(=O)[C@H](Cc1ccccc1)NC(=O)[C@H](CCC(=O)O)NC(=O)[C@H](CCCCN)NC(=O)[C@H](C)NC(=O)[C@H](C)NC(=O)[C@H](CCC(N)=O)NC(=O)CNC(=O)[C@H](CCC(=O)O)NC(=O)[C@H](CC(C)C)NC(=O)[C@H](Cc1ccc(O)cc1)NC(=O)[C@H](CO)NC(=O)[C@H](CO)NC(=O)[C@@H](NC(=O)[C@H](CC(=O)O)NC(=O)[C@H](CO)NC(=O)[C@@H](NC(=O)[C@H](Cc1ccccc1)NC(=O)[C@@H](NC(=O)CNC(=O)[C@H](CCC(=O)O)NC(=O)C(C)(C)NC(=O)[C@@H](N)Cc1c[nH]cn1)[C@@H](C)O)[C@@H](C)O)C(C)C)C(=O)N[C@@H](C)C(=O)N[C@@H](Cc1c[nH]c2ccccc12)C(=O)N[C@@H](CC(C)C)C(=O)N[C@H](C(=O)NC(C)(C)C(=O)NCC(=O)N[C@@H](CCCNC(=N)N)C(N)=O)C(C)C [SEQ ID NO: 23, H-(Aib)^2-EGT^5 FTSDV^10 SSYLE^15 GQAAK^20 EFIAW^25 LV-(Aib)^28-GR^30] | 103 nM | 105 nM | 0.0279 nM
CC[C@H](C)[C@H](NC(=O)[C@H](Cc1ccccc1)NC(=O)[C@H](CCC(=O)O)NC(=O)[C@H](CCCCN)NC(=O)[C@H](C)NC(=O)[C@H](C)NC(=O)[C@H](CCC(N)=O)NC(=O)CNC(=O)[C@H](CCC(=O)O)NC(=O)[C@H](CC(C)C)NC(=O)[C@H](Cc1ccc(O)cc1)NC(=O)[C@H](CO)NC(=O)[C@H](CO)NC(=O)[C@@H](NC(=O)[C@H](CC(=O)O)NC(=O)[C@H](CO)NC(=O)[C@@H](NC(=O)[C@H](Cc1ccccc1)NC(=O)[C@@H](NC(=O)CNC(=O)[C@H](CCC(=O)O)NC(=O)C(C)(C)NC(=O)[C@@H](N)Cc1c[nH]cn1)[C@@H](C)O)[C@@H](C)O)C(C)C)C(=O)N[C@@H](C)C(=O)N[C@@H](Cc1c[nH]c2ccccc12)C(=O)N[C@@H](CC(C)C)C(=O)N[C@H](C(=O)N[C@@H](CCCCN)C(=O)NCC(=O)N[C@@](C)(CCCNC(=N)N)C(N)=O)C(C)C [SEQ ID NO: 24, H-(Aib)^2-EGT^5 FTSDV^10 SSYLE^15 GQAAK^20 EFIAW^25 LVKG-(α-MeR)^30] | 111 nM | 111 nM | 0.021 nM
CC[C@H](C)[C@H](NC(=O)[C@H](Cc1ccccc1)NC(=O)[C@H](CCC(=O)O)NC(=O)[C@H](CCCCN)NC(=O)[C@H](C)NC(=O)[C@H](C)NC(=O)[C@H](CCC(N)=O)NC(=O)CNC(=O)[C@H](CCC(=O)O)NC(=O)[C@H](CC(C)C)NC(=O)[C@H](Cc1ccc(O)cc1)NC(=O)[C@H](CO)NC(=O)[C@H](CO)NC(=O)[C@@H](NC(=O)[C@H](CC(=O)O)NC(=O)[C@H](CO)NC(=O)[C@@H](NC(=O)[C@H](Cc1ccccc1)NC(=O)[C@@H](NC(=O)CNC(=O)[C@H](CCC(=O)O)NC(=O)C(C)(C)NC(=O)[C@@H](N)Cc1c[nH]cn1)[C@@H](C)O)[C@@H](C)O)C(C)C)C(=O)N[C@@H](C)C(=O)N[C@@H](Cc1c[nH]c2ccccc12)C(=O)N[C@@H](CC(C)C)C(=O)N[C@H](C(=O)N[C@@H](CCCCN)C(=O)NCC(=O)NC(C)(C)C(N)=O)C(C)C [SEQ ID NO: 25, H-(Aib)^2-EGT^5 FTSDV^10 SSYLE^15 GQAAK^20 EFIAW^25 LVKG-(Aib)^30] | 96.4 nM | 96.4 nM | 0.0277 nM
CC[C@H](C)[C@H](NC(=O)[C@](C)(Cc1ccccc1)NC(=O)[C@H](CCC(=O)O)NC(=O)[C@](C)(CCCCN)NC(=O)[C@H](C)NC(=O)[C@H](C)NC(=O)[C@H](CCC(N)=O)NC(=O)CNC(=O)[C@H](CCC(=O)O)NC(=O)[C@H](CC(C)C)NC(=O)[C@](C)(Cc1ccccc1)NC(=O)[C@H](CO)NC(=O)[C@H](CO)NC(=O)[C@@H](NC(=O)[C@H](CC(=O)O)NC(=O)[C@H](CO)NC(=O)[C@@H](NC(=O)[C@](C)(Cc1ccccc1)NC(=O)[C@H](CO)NC(=O)CNC(=O)[C@H](CCC(=O)O)NC(=O)C(C)(C)NC(=O)[C@@H](N)Cc1c[nH]cn1)[C@@H](C)O)C(C)C)C(=O)N[C@@H](C)C(=O)N[C@@](C)(Cc1ccccc1)C(=O)N[C@@H](CC(C)C)C(=O)N[C@H](C(=O)N[C@@H](CCCCN)C(=O)NCC(=O)NCC(N)=O)C(C)C [SEQ ID NO: 44, H-(Aib)^2-EG-(S)^5-(α-MeF)^6-TSDV^10 SS-(α-MeF)^13-LE^15 GQAA-(α-MeK)^20 E-(α-MeF)^22-IA-(α-MeF)^25 LVKG-(G)^30] (H-H[Aib]EGS[αMeF]TSDVSS[αMeF]LEGQAA[αMeK]E[αMeF]IA[αMeF]LVKGG-NH2) | 104 nM | 104 nM | 0.00985 nM
